Experimental findings from ChEMBL document CHEMBL1136260, “[18F]FMDAA1106 and [18F]FEDAA1106: two positron-emitter labeled ligands for peripheral benzodiazepine receptor (PBR)” (Bioorg Med Chem Lett, 2003) are described below.

Series [1] in a line: Partition coefficient (logP). The format is physicochemical. As to conditions: octanol/water.
Series [2] has as its target GABA-A receptor; anion channel. Briefly: In vitro displacement of [11C]Flumazenil from (CBR) central GABA-A benzodiazepine receptor of rat brain.
The next series addresses Translocator protein (Rattus norvegicus, UniProt P16257). Nature of the series: In vitro binding affinity for PBR (peripheral benzodiazepine receptor) in rat brain. The class given is tissue-based.

Some results are limits rather than exact numbers.

Sequence of Translocator protein (P16257 whole entry, looked up): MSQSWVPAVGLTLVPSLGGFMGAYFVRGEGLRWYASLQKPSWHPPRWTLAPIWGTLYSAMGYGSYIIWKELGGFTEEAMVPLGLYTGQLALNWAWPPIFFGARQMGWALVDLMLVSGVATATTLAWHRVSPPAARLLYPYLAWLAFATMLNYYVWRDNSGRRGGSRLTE

For the compound `COc1ccc(OCCF)c(CN(C(C)=O)c2cc(F)ccc2Oc2ccccc2)c1`, the logP in series [1] is 3.81. In addition, the concentration for half-maximal inhibition (IC50) in series [2] is above 10 µM.

For the compound `COc1ccc(OC)c(CN(C(C)=O)c2cc(F)ccc2Oc2ccccc2)c1`, in series [1], the logP came to 3.65. The compound also registered a Ki at Translocator protein of 0.043 nM. For the same compound, in series [2], the IC50 is above 10 µM.

With `COc1ccc(OCF)c(CN(C(C)=O)c2cc(F)ccc2Oc2ccccc2)c1`, the logP in series [1] worked out at 3.7. This compound displayed an IC50 in series [2] above 10 µM.

The compound `CC[C@@H](C)N(C)C(=O)c1cc2ccccc2c(-c2ccccc2Cl)n1` [PK-11195] came in with an IC50 in series [2] above 10 µM.
